For one substance, Kd results are on record in patent publication US20050222055A1 (priority 2002, published 2005).

Broadly, the Kd is the free concentration of one partner at which half of the binding sites on the other are occupied at equilibrium, for simple one-to-one binding.

The target in one test is 16S rRNA. Nature of the test: Bond constant by competitive luminescence anisotropy (CRP probe displacement), 16S rRNA. The conditions noted are these: luminescence anisotropy competition with CRP, 20° C., HEPES pH 7.5; read-out: binding force (KD) against 16s rRNA. As to the method: (§1) A sense DNA of 16S rRNA (sequence listing 1) and an antisense DNA of 16S rRNA (sequence listing 2); a sense DNA of RRE RNA (sequence listing 3) and an antisense DNA of RRE RNA (sequence listing 4); and a sense DNA of 23S RNA (sequence listing 5) and an antisense DNA of 23S RNA (sequence listing 6) was prepared according to the present invention.
(§2) Paricularly, the two DNAs comprising sense and antisense (2.5 nanomole, respectively), 5× buffer solution (200 mM Tris-HCl, 30 mM MgCl2, 10 mM spermidine, 50 mM NaCl, pH 7.9; 20 μl), 100 mM DL-dithiotheitol (DTT; 20 μl), four nucleotide tri phosphate mixture (2.5 mM, 20 μl), T7 RNA polymerase (50 units/mL; 1 μl) and diluted water (34 μl) were mixed and cultured at 37° C. for 2 hours. And then 1 unit/ml of Rnase-free RQ1 Dnase was added to the mixture and cultured at 37° C. for 10 minutes. 100 μl of a PCI mixture solution (phenol:chloroform:[…]=25:24:1) was added to the obtained mixture, mixed at room temperature for 5 minutes and then centrifuged at 1400 rpm for 10 minutes. […]
(§3) The paromomycin bonded with tetramethylrhodamine (hereinafter referred to as “[…]”) is used as a luminescence fluorescent probe. The luminescence anisotropy is measured by establishing a thermostat of 20° C. at the Perkin-Elmer LS-50B luminescence spectroscope. The luminescence absorptance of CRP is 510 nm and its luminescence fluorescent is observed at 550 nm. […]

In a further test the target is RRE RNA. Nature of the test: Bond constant by competitive luminescence anisotropy (CRP probe displacement), RRE RNA. The conditions noted are these: luminescence anisotropy competition with CRP, 20° C., HEPES pH 7.5; read-out: binding force (KD) against RRE RNA. On the procedure: as §1, §2, §3
The target in another test is 23S rRNA. The experiment in a line: Bond constant by competitive luminescence anisotropy (CRP probe displacement), 23S rRNA. The conditions noted are these: read-out: binding force (KD) against 23S RNA; luminescence anisotropy competition with CRP, 20° C., HEPES pH 7.5; read-out: binding force (KD) against 32S RNA. On the procedure: as §1, §2, §3

Turning to Neomycin, the Kd on 16S rRNA was greater than 2000 nM; on RRE RNA, 180 nM; on 23S rRNA, greater than 2000 nM.
